Reference: PubChem BioAssay AID1259407 (Chemical Carcinogenesis Research Information System (CCRIS), 2018)
Active and inactive are the calls of the source. No rule for the calls is given here.

System: CCRIS mutagenicity, Ames/micronucleus/aberration tests
Assay: CCRIS mutagenicity studies

For `Nc1cc([N+](=O)[O-])cc([N+](=O)[O-])c1C(=O)O`, the mutagenic call (End Point: In vitro chromosomal aberrations, Test System: V79 Chinese hamster fibroblasts, Metabolic Activation: None) was “inactive; negative”, the mutagenic call (End Point: In vitro micronucleus, Test System: HepG2 human hepatoma cells, Metabolic Activation: None) was “active; positive” and the mutagenic call (Test System: Ames Salmonella typhimurium, Strain/Indicator: TA98, Metabolic Activation: None, Method: Standard plate) was “active; positive”. For the same molecule, the mutagenic call (Test System: Ames Salmonella typhimurium, Strain/Indicator: TA98, Metabolic Activation: Rat, Liver, S-9, Method: Standard plate) was “active; positive”, the mutagenic call (Test System: Ames Salmonella typhimurium, Strain/Indicator: TA98NR, Metabolic Activation: None, Method: Standard plate) was “active; positive” and the mutagenic call (Test System: Ames Salmonella typhimurium, Strain/Indicator: TA100, Metabolic Activation: None, Method: Standard plate) was “inactive; negative”. The mutagenic call (Test System: Ames Salmonella typhimurium, Strain/Indicator: TA100, Metabolic Activation: Rat, Liver, S-9, Method: Standard plate) was “inactive; negative”.
In the case of `Cc1cccc2cc3c4c(cccc4c12)-c1ccccc1-3`, the mutagenic call (Test System: AMES SALMONELLA TYPHIMURIUM, Strain/Indicator: TA100, Metabolic Activation: RAT, LIVER, S-9, AROCLOR 1254) was “active; positive”.
`Oc1ccc2cc3ccc4cccc5ccc(c2c1)c3c45` was tested, and the mutagenic call (Test System: AMES SALMONELLA TYPHIMURIUM, Strain/Indicator: TA98, Metabolic Activation: RAT, LIVER, 3-METHYLCHOLANTHRENE, Method: LIQUID SUSPENSION) was “active; positive”, the mutagenic call (Test System: AMES SALMONELLA TYPHIMURIUM, Strain/Indicator: TA1538, Metabolic Activation: RAT, LIVER, 3-METHYLCHOLANTHRENE, Method: LIQUID SUSPENSION) was “active; positive” and the mutagenic call (Test System: CHINESE HAMSTER V-79, Strain/Indicator: V-79/OUABAIN, Metabolic Activation: NONE, Method: STANDARD PLATE) was “active; positive”.
